Data from patent US20090299049A1, “Bicyclic Compounds and Their Use” (priority 2006, published 2009).

Experiments:
[1] = Optical properties: UV-visible spectra, fluorescence excitation and emission; assay type: physicochemical; conditions: for Stokes shift: (1/λex − 1 λem); for λem: fluorescence emission wavelength; for λex: fluorescence excitation wavelength; for HOMO-LUMO gap relative to compound 5a: inferred from UV-visible spectrum
Text: The optical properties of several novel chromophores were investigated. UV-visible spectra reveal an intense absorption in the UV region for all the compounds evaluated.

[2] = UV absorbance and fluorescence of ribonucleoside analogues in DMSO (molar extinction coefficient, quantum yield); assay type: physicochemical; conditions: for Quantum yield: relative to quinine sulphate and anthracene standards
Text: UV absorbance and fluorescence excitation and emission data were used to determine the molar extinction coefficient and fluorescence quantum yield of a several adenosine and guanosine ribonucleoside analogues in DMSO (see the Table below). The data acquired support the concept that the fluorescence properties of these analogues can be tuned by altering the electron-donating or electron-withdrawing R-group on the terminal phenylalkyne. Fourteen electron-donating or electron-withdrawing R-groups were coupled to purine bases at the 8-position. […] This makes the analogues extremely useful for the quantification of analogue-containing nucleic acid products in a DNA or RNA background. […] The position (ortho, meta or para) of the R-group on the phenyl ring can also be used to tune the fluorescent properties of the analogues. The ring position of the R-group has a smaller effect on the fluorescent properties of the analogues. Greater changes in the excitation/emission wavelength, molar extinction coefficient and quantum yield can be induced by changing the type of R-group (electron-donating vs. electron-withdrawing) as compared to the position of a R-group on the phenyl ring (ortho, meta or para). The quantum yields of the unphosphorylated analogues were measured relative to quinine sulphate and anthracene standards. […] This provides additional support for the idea that the purine bases can both push and pull electrons in π-conjugated systems.

Compound: 8-(1′-Ethynylferrocene)adenosine [Compound 6i]
- Stokes shift [1]: 3986 cm⁻¹
- λem [1]: 434 nm
- λex [1]: 370 nm

Compound: 8-(1′-Ethynylferrocene)guanosine [Compound 5i]
- Stokes shift [1]: 3537 cm⁻¹
- λem [1]: 439 nm
- λex [1]: 380 nm

Compound: Nc1ncnc2c1nc(C#Cc1cccc(C(F)(F)F)c1)n2[C@@H]1O[C@H](CO)[C@@H](O)[C@H]1O [Adenosine —CF3 meta]
- Molar absorption coefficient [2]: 19547 M⁻¹ cm⁻¹
- Wavelength at fluorescence emission maximum [2]: 421 nm
- Wavelength at maximum in UV absorption [2]: 326 nm
- Quantum yield [2]: 21%

Compound: Nc1ncnc2c1nc(C#Cc1ccc(Cl)cc1)n2[C@@H]1O[C@H](CO)[C@@H](O)[C@H]1O [Adenosine —Cl para]
- Molar absorption coefficient [2]: 23927 M⁻¹ cm⁻¹
- Wavelength at fluorescence emission maximum [2]: 410 nm
- Wavelength at maximum in UV absorption [2]: 326 nm
- Quantum yield [2]: 46%

Compound: Nc1ncnc2c1nc(C#Cc1ccc(F)cc1)n2[C@@H]1O[C@H](CO)[C@@H](O)[C@H]1O [Adenosine —F para]
- Molar absorption coefficient [2]: 5558 M⁻¹ cm⁻¹
- Wavelength at fluorescence emission maximum [2]: 396 nm
- Wavelength at maximum in UV absorption [2]: 320 nm
- Quantum yield [2]: 40%

Compound: COc1cccc(C#Cc2nc3c(N)ncnc3n2[C@@H]2O[C@H](CO)[C@@H](O)[C@H]2O)c1 [Adenosine —OCH3 meta]
- Molar absorption coefficient [2]: 19589 M⁻¹ cm⁻¹
- Wavelength at fluorescence emission maximum [2]: 400 nm
- Wavelength at maximum in UV absorption [2]: 324 nm
- Quantum yield [2]: 52%

Compound: COc1ccccc1C#Cc1nc2c(N)ncnc2n1[C@@H]1O[C@H](CO)[C@@H](O)[C@H]1O [Adenosine —OCH3 ortho]
- Wavelength at fluorescence emission maximum [2]: 429 nm
- Wavelength at maximum in UV absorption [2]: 333 nm
- Quantum yield [2]: 21%

Compound: Nc1nc2c(nc(C#Cc3ccccc3)n2[C@@H]2O[C@H](CO)[C@@H](O)[C@H]2O)c(=O)[nH]1 [Compound 5a, 8-(Phenylethynyl)guanosine]
- Stokes shift [1]: 4196 cm⁻¹
- λem [1]: 438 nm
- λex [1]: 370 nm
- melting point: 234 to 236 °C (dec.)
- Wavelength at fluorescence emission maximum [2]: 416 nm
- Wavelength at maximum in UV absorption [2]: 330 nm
- Quantum yield [2]: 2.7%

Compound: Cc1ccc(C#Cc2nc3c(=O)[nH]c(N)nc3n2[C@@H]2O[C@H](CO)[C@@H](O)[C@H]2O)cc1 [Compound 5b, 8-(4′-Methylphenylethynyl)guanosine]
- Stokes shift [1]: 3452 cm⁻¹
- λem [1]: 415 nm
- λex [1]: 363 nm
- melting point: 222 to 226 °C (dec.)
- Molar absorption coefficient [2]: 16591 M⁻¹ cm⁻¹
- Wavelength at fluorescence emission maximum [2]: 409 nm
- Wavelength at maximum in UV absorption [2]: 331 nm
- Quantum yield [2]: 3.1%

Compound: COc1ccc(C#Cc2nc3c(=O)[nH]c(N)nc3n2[C@@H]2O[C@H](CO)[C@@H](O)[C@H]2O)cc1 [Compound 5c, 8-(4-Methoxyphenylethynyl)guanosine]
- UV-visible spectrum shift relative to compound 5a (parent) [1]: red-shifted
- Stokes shift [1]: 2749 cm⁻¹
- λem [1]: 402 nm
- λex [1]: 362 nm
- HOMO-LUMO gap relative to compound 5a [1]: smaller HOMO-LUMO gap
- melting point: 220 to 224 °C (dec.)
- Molar absorption coefficient [2]: 22569 M⁻¹ cm⁻¹
- Wavelength at fluorescence emission maximum [2]: 398 nm
- Wavelength at maximum in UV absorption [2]: 330 nm
- Quantum yield [2]: 1.2%

Compound: CSc1ccc(C#Cc2nc3c(=O)[nH]c(N)nc3n2[C@@H]2O[C@H](CO)[C@@H](O)[C@H]2O)cc1 [Compound 5d, 8-(4-Methylsulfanylphenylethynyl)guanosine]
- Stokes shift [1]: 3264 cm⁻¹
- λem [1]: 426 nm
- λex [1]: 374 nm
- melting point: 214 to 216 °C (dec.)
- Molar absorption coefficient [2]: 19832 M⁻¹ cm⁻¹
- Wavelength at fluorescence emission maximum [2]: 425 nm
- Wavelength at maximum in UV absorption [2]: 343 nm
- Quantum yield [2]: 4.5%

Compound: CCN(CC)c1ccc(C#Cc2nc3c(=O)[nH]c(N)nc3n2[C@@H]2O[C@H](CO)[C@@H](O)[C@H]2O)cc1 [Compound 5e, 8-(4-N,N-diethylaminephenylethynyl)guanosine]
- UV-visible spectrum shift relative to compound 5a (parent) [1]: red-shifted
- Stokes shift [1]: 5205 cm⁻¹
- λem [1]: 502 nm
- λex [1]: 398 nm
- HOMO-LUMO gap relative to compound 5a [1]: higher HOMO-LUMO gap
- Wavelength at fluorescence emission maximum [2]: 409 nm
- Wavelength at maximum in UV absorption [2]: 356 nm
- Quantum yield [2]: 2.1%

Compound: CC(=O)c1ccc(C#Cc2nc3c(=O)[nH]c(N)nc3n2[C@@H]2O[C@H](CO)[C@@H](O)[C@H]2O)cc1 [Compound 5f, 8-(4′-Acetophenonephenylethynyl)guanosine]
- Stokes shift [1]: 6392 cm⁻¹
- λem [1]: 532 nm
- λex [1]: 397 nm
- Molar absorption coefficient [2]: 19589 M⁻¹ cm⁻¹
- Wavelength at fluorescence emission maximum [2]: 509 nm
- Wavelength at maximum in UV absorption [2]: 364 nm
- Quantum yield [2]: 0.44%

Compound: Nc1nc2c(nc(C#Cc3ccc(C(F)(F)F)cc3)n2[C@@H]2O[C@H](CO)[C@@H](O)[C@H]2O)c(=O)[nH]1 [Compound 5g, 8-(4′-Trifluoromethylphenylethynyl)guanosine]
- Stokes shift [1]: 4539 cm⁻¹
- λem [1]: 468 nm
- λex [1]: 386 nm
- melting point: > 240 °C
- Wavelength at fluorescence emission maximum [2]: 458 nm
- Wavelength at maximum in UV absorption [2]: 348 nm
- Quantum yield [2]: 0.74%

Compound: Nc1nc2c(nc(C#Cc3cccc4ccccc34)n2[C@@H]2O[C@H](CO)[C@@H](O)[C@H]2O)c(=O)[nH]1 [Compound 5h, 8-(Napthylethynyl)guanosine]
- Stokes shift [1]: 4604 cm⁻¹
- λem [1]: 465 nm
- λex [1]: 383 nm
- Molar absorption coefficient [2]: 15141 M⁻¹ cm⁻¹
- Wavelength at fluorescence emission maximum [2]: 467 nm
- Wavelength at maximum in UV absorption [2]: 357 nm
- Quantum yield [2]: 5.4%

Compound: Nc1ncnc2c1nc(C#Cc1ccccc1)n2[C@@H]1O[C@H](CO)[C@@H](O)[C@H]1O [Compound 6a, 8-(Phenylethynyl)adenosine]
- Stokes shift [1]: 3383 cm⁻¹
- λem [1]: 397 nm
- λex [1]: 350 nm
- melting point: 168 to 170 °C (dec.)
- Wavelength at fluorescence emission maximum [2]: 398 nm
- Wavelength at maximum in UV absorption [2]: 322 nm
- Quantum yield [2]: 49%

Compound: Cc1ccc(C#Cc2nc3c(N)ncnc3n2[C@@H]2O[C@H](CO)[C@@H](O)[C@H]2O)cc1 [Compound 6b, 8-(4′-Methylphenylethynyl)adenosine]
- Stokes shift [1]: 3126 cm⁻¹
- λem [1]: 393 nm
- λex [1]: 350 nm
- melting point: 196 to 198 °C (dec.)
- Molar absorption coefficient [2]: 18772 M⁻¹ cm⁻¹
- Wavelength at fluorescence emission maximum [2]: 393 nm
- Wavelength at maximum in UV absorption [2]: 323 nm
- Quantum yield [2]: 54%

Compound: CCN(CC)c1ccc(C#Cc2nc3c(N)ncnc3n2[C@@H]2O[C@H](CO)[C@@H](O)[C@H]2O)cc1 [Compound 6e, 8-(4-N,N-Diethylaminephenylethynyl)adenosine]
- Stokes shift [1]: 4747 cm⁻¹
- Absorption maxima shift relative to compound 7a (parent) ([1]; compared with the guanosine series): more significant differences
- λem [1]: 506 nm
- λex [1]: 408 nm
- Wavelength at fluorescence emission maximum [2]: 441 nm
- Wavelength at maximum in UV absorption [2]: 365 nm
- Quantum yield [2]: 8.4%

Compound: CC(=O)c1ccc(C#Cc2nc3c(N)ncnc3n2[C@@H]2O[C@H](CO)[C@@H](O)[C@H]2O)cc1 [Compound 6f, 8-(4′-Acetophenonephenylethynyl)adenosine]
- Stokes shift [1]: 6454 cm⁻¹
- λem [1]: 493 nm
- λex [1]: 374 nm
- Molar absorption coefficient [2]: 19639 M⁻¹ cm⁻¹
- Wavelength at fluorescence emission maximum [2]: 493 nm
- Wavelength at maximum in UV absorption [2]: 343 nm
- Quantum yield [2]: 4.9%

Compound: Nc1ncnc2c1nc(C#Cc1cccc3ccccc13)n2[C@@H]1O[C@H](CO)[C@@H](O)[C@H]1O [Compound 6h, 8-(Napthylethynyl)adenosine]
- Stokes shift [1]: 3394 cm⁻¹
- λem [1]: 431 nm
- λex [1]: 376 nm
- Molar absorption coefficient [2]: 22970 M⁻¹ cm⁻¹
- Wavelength at fluorescence emission maximum [2]: 430 nm
- Wavelength at maximum in UV absorption [2]: 349 nm
- Quantum yield [2]: 49%

Compound: Nc1nc2c(nc(C#Cc3ccccc3C(F)(F)F)n2[C@@H]2O[C@H](CO)[C@@H](O)[C@H]2O)c(=O)[nH]1 [Guanosine —CF3 ortho]
- Wavelength at fluorescence emission maximum [2]: 421 nm
- Wavelength at maximum in UV absorption [2]: 347 nm
- Quantum yield [2]: 1.1%

Compound: Nc1nc2c(nc(C#Cc3ccc(Cl)cc3)n2[C@@H]2O[C@H](CO)[C@@H](O)[C@H]2O)c(=O)[nH]1 [Guanosine —Cl para]
- Molar absorption coefficient [2]: 23317 M⁻¹ cm⁻¹
- Wavelength at fluorescence emission maximum [2]: 431 nm
- Wavelength at maximum in UV absorption [2]: 338 nm
- Quantum yield [2]: 1.9%

Compound: Nc1nc2c(nc(C#Cc3ccc(F)cc3)n2[C@@H]2O[C@H](CO)[C@@H](O)[C@H]2O)c(=O)[nH]1 [Guanosine —F para]
- Molar absorption coefficient [2]: 11304 M⁻¹ cm⁻¹
- Wavelength at fluorescence emission maximum [2]: 416 nm
- Wavelength at maximum in UV absorption [2]: 333 nm
- Quantum yield [2]: 2.4%

Compound: COc1cccc(C#Cc2nc3c(=O)[nH]c(N)nc3n2[C@@H]2O[C@H](CO)[C@@H](O)[C@H]2O)c1 [Guanosine —OCH3 meta]
- Molar absorption coefficient [2]: 20261 M⁻¹ cm⁻¹
- Wavelength at fluorescence emission maximum [2]: 420 nm
- Wavelength at maximum in UV absorption [2]: 334 nm
- Quantum yield [2]: 3.6%
